# Measured values taken from patent US7446104B2, “Phenylalkynes” (Ortho-McNeil Pharmaceutical, Inc., priority 2001, dated 2008).
# Molecular target: T1, human histamine H3 receptor (Homo sapiens, UniProt Q9Y5N1)
# T1 construct: One microgram of supercoiled H3 receptor cDNA was added to the cells and mixed; expressed in transfected cells; membranes prepared from cell pellets
# Assay: [3H]-N-methylhistamine binding
# Conditions: not given
# Procedure: Transfection of Cells with Human Histamine Receptor
# A 10 cm tissue culture dish with a confluent monolayer of SK-N-MC cells was split two days prior to transfection. Using sterile technique the media were removed and the cells were detached from the dish by the addition of trypsin. One fifth of the cells were then placed onto a new 10 cm dish. Cells were grown in a 37° C. incubator with 5% CO2 in Minimal Essential Media Eagle with 10% Fetal Bovine Serum. After two days cells were approximately 80% confluent. These were removed from the dish with trypsin and pelleted in a clinical centrifuge. The pellet was then re-suspended in 400 μL complete media and transferred to an electroporation cuvette with a 0.4 cm gap between the electrodes. One microgram of supercoiled H3 receptor cDNA was added to the cells and mixed. The voltage for the electroporation was set at 0.25 kV, the capacitance was set at 960 μF. After electroporation the cells were diluted into 10 mL complete media and plated onto four 10 cm dishes. Because of the variability in the efficiency of electroporation, four different concentrations of cells were plated. The ratios used were; 1:20, 1:10, 1:5, with the remainder of the cells being added to the fourth dish. The cells were allowed to recover for 24 hours before adding the selection media (complete media with 600 μg/mL G418). After 10 days dishes were analyzed for surviving colonies of cells. Dishes with well isolated colonies were used. Cells from individual colonies were isolated and tested. SK-N-MC cells were used because they give efficient coupling for inhibition of adenylate cyclase. The clones that gave the most robust inhibition of adenylate cyclase in response to histamine were used for further study.
# [^3H]-N-methylhistamine Binding
# Cell pellets from histamine H3 receptor-expressing SK-N-MC cells were homogenized in 20 mM Tris HCl/0.5 mM EDTA. Supernatants from a 800 g spin were collected, recentrifuged at 30,000 g for 30 min. Pellets were re-homogenized in 50 mM Tris/5 mM EDTA (pH 7.4). Membranes were incubated with 0.8 nM [^3H]-N-methylhistamine plus/minus test compounds for 45 min at 25° C. and harvested by rapid filtration over GF/C glass fiber filters (pretreated with 0.3% polyethylenimine) followed by four washes with ice cold buffer. Filters were dried, added to 4 mL scintillation cocktail and then counted on a liquid scintillation counter. Non-specific binding was defined with 10 μM histamine.
# T1 sequence (Q9Y5N1 whole entry): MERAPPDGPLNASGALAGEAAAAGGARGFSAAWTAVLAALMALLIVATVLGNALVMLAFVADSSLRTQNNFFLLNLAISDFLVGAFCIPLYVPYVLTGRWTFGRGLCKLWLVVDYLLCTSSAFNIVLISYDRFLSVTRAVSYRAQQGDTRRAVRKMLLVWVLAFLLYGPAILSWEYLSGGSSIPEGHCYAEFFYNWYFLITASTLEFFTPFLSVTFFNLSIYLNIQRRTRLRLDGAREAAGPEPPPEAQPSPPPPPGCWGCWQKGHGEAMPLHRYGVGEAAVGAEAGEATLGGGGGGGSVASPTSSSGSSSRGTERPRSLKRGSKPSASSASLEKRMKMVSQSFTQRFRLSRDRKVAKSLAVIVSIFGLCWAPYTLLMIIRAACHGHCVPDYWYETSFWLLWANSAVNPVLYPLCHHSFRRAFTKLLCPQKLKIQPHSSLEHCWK
row,Structure (SMILES),Ki [nM]
1,"C(#Cc1cccc(CN2CCCCC2c2cccnc2)c1)CCN1CCCCC1 (stereo not shown) [Example 42, 1-[3-(4-Piperidin-1-yl-but-1-ynyl)-benzyl]-1,2,3,4,5,6-hexahydro-[2,3′]bipyridinyl]",11
2,"C(#Cc1ccc(CN2CCNCC2)cc1)CCN1CCCCC1 [Example 38, 1-[4-(4-Piperidin-1-yl-but-1-ynyl)-benzyl]-piperazine]",1.3
3,"CN(CCc1c[nH]c2ccccc12)Cc1cccc(C#CCCN2CCCCC2)c1 [Example 52, [2-(1H-Indol-3-yl)-ethyl]-methyl-[3-(4-piperidin-1-yl-but-1-ynyl)-benzyl]-amine]",2
4,"CN1CCN(Cc2ccc(C#CCCN3CCCCC3)cc2)CC1 [Example 32, 1-Methyl-4-[4-(4-piperidin-1-yl-but-1-ynyl)-benzyl]-piperazine]",0.7
5,"FC(F)(F)c1cccc(N2CCN(Cc3cccc(C#CCCN4CCCCC4)c3)CC2)c1 [Example 43, 1-[3-(4-Piperidin-1-yl-but-1-ynyl)-benzyl]-4-(3-trifluoromethyl-phenyl)-piperazine]",91
6,"C(#Cc1ccc(CN2CCN(Cc3ccccc3)CC2)cc1)CCN1CCCCC1 [Example 36, 1-Benzyl-4-[4-(4-piperidin-1-yl-but-1-ynyl)-benzyl]-piperazine]",9

# Same assay, conditions: membranes of histamine H3 receptor-expressing SK-N-MC cells; 0.8 nM [3H]-N-methylhistamine; 45 min at 25° C.; read-out: Ki
row,Ki [nM],Structure (SMILES)
1,9,"C(#Cc1cccc(CN2CCN(c3ncccn3)CC2)c1)CCN1CCCCC1 [Example 44, 2-{4-[3-(4-Piperidin-1-yl-but-1-ynyl)-benzyl]-piperazin-1-yl}-pyrimidine]"
2,2.9,"C(#Cc1ccc(CN2CCC(Cc3ccccc3)CC2)cc1)CCN1CCCCC1 [Example 26, 1-{4-[4-(4-Benzyl-piperidin-1-ylmethyl)-phenyl]-but-3-ynyl}-piperidine]"
3,15,"CC(C)(C)OC(=O)N1CCN(Cc2ccc(C#CCCN3CCCCC3)cc2)CC1 [Example 37, 4-[4-(4-Piperidin-1-yl-but-1-ynyl)-benzyl]-piperazine-1-carboxylic acid tert-butyl ester]"
4,110,"C(#Cc1cccc(CNc2ccccc2)c1)CCN1CCCCC1 [Example 54, Phenyl-[3-(4-piperidin-1-yl-but-1-ynyl)-benzyl]-amine]"
5,1.8,"C(#Cc1ccc(CN2CCC3(CC2)OCCO3)cc1)CCN1CCCCC1 [Example 31, 8-[4-(4-Piperidin-1-yl-but-1-ynyl)-benzyl]-1,4-dioxa-8-aza-spiro[4.5]decane]"
6,1.6,"C(#Cc1ccc(CN2CCCCC2)cc1)CCN1CCCCC1 [Example 14, 1-[4-(4-Piperidin-1-ylmethyl-phenyl)-but-3-ynyl]-piperidine]"
7,2,"C(#Cc1ccc(CN2CCCCC2)cc1)CCN1CCCC1 [Example 18, 1′-[4-(4-Pyrrolidin-1-yl-but-1-ynyl)-benzyl]-piperidine]"
8,21,"CN1CCN(CCC#Cc2ccc(CN3CCCCC3)cc2)CC1 [Example 22, 1-Methyl-4-[4-(4-piperidin-1-ylmethyl-phenyl)-but-3-ynyl]-piperazine]"
9,2,"C=CCN(Cc1cccc(C#CCCN2CCCCC2)c1)C1CCCC1 [Example 49, Allyl-cyclopentyl-[3-(4-piperidin-1-yl-but-1-ynyl)-benzyl]-amine]"
10,1,"C(#Cc1cccc(CN2CCSCC2)c1)CCN1CCCCC1 [Example 48, 4-[3-(4-Piperidin-1-yl-but-1-ynyl)-benzyl]-thiomorpholine]"
11,0.4,"OCCC1CCCCN1Cc1ccc(C#CCCN2CCCCC2)cc1 (stereo not shown) [Example 28, 2-{1-[4-(4-Piperidin-1-yl-but-1-ynyl)-benzyl]-piperidin-2-yl}-ethanol]"
12,0.8,"C(#Cc1cccc(CN2CCCCC2)c1)CCN1CCCCC1 [Example 15, 1-[3-(4-Piperidin-1-yl-but-1-ynyl)-benzyl]-piperidine]"
13,2.4,"CCN(CC)CCC#Cc1ccc(CN2CCCCC2)cc1 [Example 19, Diethyl-[4-(4-piperidin-1-ylmethyl-phenyl)-but-3-ynyl]-amine]"
14,1.7,"OC1CCN(Cc2ccc(C#CCCN3CCCCC3)cc2)CC1 [Example 27, 1-[4-(4-Piperidin-1-yl-but-1-ynyl)-benzyl]-piperidin-4-ol]"
15,15,"C(#Cc1ccc(CN2CCCCC2)cc1)CCN1CCOCC1 [Example 21, 4-[4-(4-Piperidin-1-ylmethyl-phenyl)-but-3-ynyl]-morpholine]"

# The remaining lines, values behind:
row,Structure (SMILES),Ki [nM]
1,"C(#Cc1cccc(CN2CCOCCOCCOCC2)c1)CCN1CCCCC1 [Example 50, 10-[3-(4-Piperidin-1-yl-but-1-ynyl)-benzyl]-1,4,7-trioxa-10-aza-cyclododecane]",2
2,"C(#Cc1ccc(CNC2CCCCC2)cc1)CCN1CCCCC1 [Example 33, Cyclohexyl-[4-(4-piperidin-1-yl-but-1-ynyl)-benzyl]-amine]",0.5
3,"CC(C)N1CCN(Cc2ccc(C#CCCN3CCCCC3)cc2)CC1 [Example 39, 1-Isopropyl-4-[4-(4-piperidin-1-yl-but-1-ynyl)-benzyl]-piperazine]",1.3
4,"NC(=O)C1CCN(Cc2cccc(C#CCCN3CCCCC3)c2)CC1 [Example 45, 1-[3-(4-Piperidin-1-yl-but-1-ynyl)-benzyl]-piperidine-4-carboxylic acid amide]",2
5,"COc1ccc(CCN(C)Cc2cccc(C#CCCN3CCCCC3)c2)cc1OC [Example 47, [2-(3,4-Dimethoxy-phenyl)-ethyl]-methyl-[3-(4-piperidin-1-yl-but-1-ynyl)-benzyl]-amine]",3
6,"CN(CCc1ccccn1)Cc1cccc(C#CCCN2CCCCC2)c1 [Example 46, Methyl-[3-(4-piperidin-1-yl-but-1-ynyl)-benzyl]-(2-pyridin-2-yl-ethyl)-amine]",4
7,"C(#Cc1ccc(CN2CCCC3CCCCC32)cc1)CCN1CCCCC1 (stereo not shown) [Example 29, 1-[4-(4-Piperidin-1-yl-but-1-ynyl)-benzyl]-decahydro-quinoline]",0.8
8,"C(#Cc1ccc(CN2CCOCC2)cc1)CCN1CCCCC1 [Example 24, 4-[4-(4-Piperidin-1-yl-but-1-ynyl)-benzyl]-morpholine]",5.5
9,"CCN(CC)Cc1ccc(C#CCCN2CCCCC2)cc1 [Example 25, Diethyl-[4-(4-piperidin-1-yl-but-1-ynyl)-benzyl]-amine]",1.1
10,"C(#Cc1cccc(CN2CCSC2)c1)CCN1CCCCC1 [Example 51, 1-[4-(3-Thiazolidin-3-ylmethyl-phenyl)-but-3-ynyl]-piperidine]",1
11,"CCN(CC)C(=O)C1CCCN(Cc2cccc(C#CCCN3CCCCC3)c2)C1 (stereo not shown) [Example 41, 1-[3-(4-Piperidin-1-yl-but-1-ynyl)-benzyl]-piperidine-3-carboxylic acid diethylamide]",3
12,"C(#Cc1ccc(CN2CCCCC2)cc1)CCN1CCSCC1 [Example 20, 4-[4-(4-Piperidin-1-ylmethyl-phenyl)-but-3-ynyl]-thiomorpholine]",6
13,"NC(=O)C1CCN(Cc2ccc(C#CCCN3CCCCC3)cc2)CC1 [Example 30, 1-[4-(4-Piperidin-1-yl-but-1-ynyl)-benzyl]-piperidine-4-carboxylic acid amide]",1.6
14,"C(#Cc1ccc(CN2CCN(c3ccccc3)CC2)cc1)CCN1CCCCC1 [Example 35, 1-Phenyl-4-[4-(4-piperidin-1-yl-but-1-ynyl)-benzyl]-piperazine]",7
15,"C(#Cc1ccc(CN2CCCC2)cc1)CCN1CCCCC1 [Example 23, 1-[4-(4-Pyrrolidin-1-ylmethyl-phenyl)-but-3-ynyl]-piperidine]",1.4
16,"C(#Cc1cccc(CN2CCCC2)c1)CCN1CCCCC1 [Example 55, 1-[4-(3-Pyrrolidin-1-ylmethyl-phenyl)-but-3-ynyl]-piperidine]",1
17,"C(#Cc1ccc(CNC2CCc3ccccc32)cc1)CCN1CCCCC1 (stereo not shown) [Example 34, Indan-1-yl-[4-(4-piperidin-1-yl-but-1-ynyl)-benzyl]-amine]",1.3
18,"C(#Cc1cccc(CN2CCCCCCCCCCCC2)c1)CCN1CCCCC1 [Example 56, 1-[3-(4-Piperidin-1-yl-but-1-ynyl)-benzyl]-azacyclotridecane]",13

# Same assay, conditions: read-out: Ki
row,Structure (SMILES),Ki [nM]
1,"O=C1NCN(c2ccccc2)C12CCN(Cc1cccc(C#CCCN3CCCCC3)c1)CC2 [Example 40, 1-Phenyl-8-[3-(4-piperidin-1-yl-but-1-ynyl)-benzyl]-1,3,8-triaza-spiro[4.5]decan-4-one]",2
